We go through two compounds from ChEMBL document CHEMBL5463725, “Data for DCP probe BAY-277” (2023).

The source made the active and inactive calls. No cut-off for these calls is given here.

For one assay, the target named is D(3) dopamine receptor (Homo sapiens, UniProt P35462). Description: GPCRScan assay: inhibition of D3. The arrangement: radioligand conc. used [nm] 0.5 – 1.8, parental cells HEKT.
For assay [1], the target named is PAS domain-containing serine/threonine-protein kinase (Homo sapiens) (UniProt Q96RG2). Description: Inhibition of PASK(h) at 10.0 µM in the Eurofins Kinase panel. The conditions noted are these: Compound concentration 10.0 uM.
The target of assay [2] is [Pyruvate dehydrogenase (acetyl-transferring)] kinase isozyme 2, mitochondrial (Homo sapiens) (UniProt Q15119). Briefly: Inhibition of PDHK2(h) at 10.0 µM in the Eurofins Kinase panel. The conditions noted are these: Compound concentration 10.0 uM.
Assay [3] addresses Tyrosine-protein kinase Mer (Homo sapiens) (UniProt Q12866). Briefly: Inhibition of Mer(h) at 10.0 µM in the Eurofins Kinase panel. To be noted: Compound concentration 10.0 uM.
Assay [4] concerns the target Cyclin-dependent kinase-like 2 (Homo sapiens) (UniProt Q92772). Briefly: Inhibition of CDKL2(h) at 10.0 µM in the Eurofins Kinase panel. To be noted: Compound concentration 10.0 uM.
Assay [5] has as its target Serine/threonine-protein kinase Nek5 (Homo sapiens) (UniProt Q6P3R8). Description: Inhibition of NEK5(h) at 10.0 µM in the Eurofins Kinase panel. To be noted: Compound concentration 10.0 uM.
In assay [6] the target is MAP kinase-activated protein kinase 2 (Homo sapiens) (UniProt P49137). Description: Inhibition of MAPKAP-K2(h) at 10.0 µM in the Eurofins Kinase panel. The conditions noted are these: Compound concentration 10.0 uM.
Assay [7] concerns the target Serine/threonine-protein kinase 38-like (Homo sapiens) (UniProt Q9Y2H1). Description: Inhibition of NDR2(h) at 10.0 µM in the Eurofins Kinase panel. The conditions noted are these: Compound concentration 10.0 uM.
Assay [8] addresses Serine/threonine-protein kinase Sgk3 (Homo sapiens) (UniProt Q96BR1). Description: Inhibition of SGK3(h) at 10.0 µM in the Eurofins Kinase panel. The conditions noted are these: Compound concentration 10.0 uM.
The target of assay [9] is Tyrosine-protein kinase Lck (Homo sapiens) (UniProt P06239). Briefly: Inhibition of Lck(h) activated at 10.0 µM in the Eurofins Kinase panel. The conditions noted are these: Compound concentration 10.0 uM.
In assay [10] the target is Protein kinase C alpha type (Homo sapiens) (UniProt P17252). Briefly: Inhibition of PKCalpha(h) at 10.0 µM in the Eurofins Kinase panel. The conditions noted are these: Compound concentration 10.0 uM.
Assay [11] has as its target TRAF2 and NCK-interacting protein kinase (Homo sapiens) (UniProt Q9UKE5). Description: Inhibition of TNIK(h) at 10.0 µM in the Eurofins Kinase panel. To be noted: Compound concentration 10.0 uM.
The target of assay [12] is SRSF protein kinase 3 (Homo sapiens) (UniProt Q9UPE1). Description: Inhibition of MSSK1(h) at 10.0 µM in the Eurofins Kinase panel. The conditions noted are these: Compound concentration 10.0 uM.
The target in assay [13] is Serine/threonine-protein kinase DCLK2 (Homo sapiens) (UniProt Q8N568). Briefly: Inhibition of DCAMKL2(h) at 10.0 µM in the Eurofins Kinase panel. The conditions noted are these: Compound concentration 10.0 uM.
For assay [14], the target named is PI3-kinase p110-delta/p85-alpha (Homo sapiens) (UniProt P27986+O00329). Description: Inhibition of PI3 Kinase (p110d/p85a)(h) at 10.0 µM in the Eurofins Kinase panel. To be noted: Compound concentration 10.0 uM. It is filed as protein-complex assay.
The target of assay [15] is STE20/SPS1-related proline-alanine-rich protein kinase (Homo sapiens) (UniProt Q9UEW8). Description: Inhibition of STK39(h) at 10.0 µM in the Eurofins Kinase panel. To be noted: Compound concentration 10.0 uM.
Assay [16] concerns the target Protein kinase C gamma type (Homo sapiens) (UniProt P05129). Description: Inhibition of PKCgamma(h) at 10.0 µM in the Eurofins Kinase panel. The conditions noted are these: Compound concentration 10.0 uM.
The target in assay [17] is Casein kinase II subunit alpha' (Homo sapiens) (UniProt P19784). Description: Inhibition of CK2alpha2(h) at 10.0 µM in the Eurofins Kinase panel. To be noted: Compound concentration 10.0 uM.
The target of assay [18] is Tribbles homolog 2 (Homo sapiens) (UniProt Q92519). Description: Inhibition of TRB2(h) at 10.0 µM in the Eurofins Kinase panel. The conditions noted are these: Compound concentration 10.0 uM.
For assay [19], the target named is Testis-specific serine/threonine-protein kinase 4 (Homo sapiens) (UniProt Q6SA08). Description: Inhibition of TSSK4(h) at 10.0 µM in the Eurofins Kinase panel. To be noted: Compound concentration 10.0 uM.
Testis-specific serine/threonine-protein kinase 4 (Homo sapiens), sequence (Q6SA08 whole entry): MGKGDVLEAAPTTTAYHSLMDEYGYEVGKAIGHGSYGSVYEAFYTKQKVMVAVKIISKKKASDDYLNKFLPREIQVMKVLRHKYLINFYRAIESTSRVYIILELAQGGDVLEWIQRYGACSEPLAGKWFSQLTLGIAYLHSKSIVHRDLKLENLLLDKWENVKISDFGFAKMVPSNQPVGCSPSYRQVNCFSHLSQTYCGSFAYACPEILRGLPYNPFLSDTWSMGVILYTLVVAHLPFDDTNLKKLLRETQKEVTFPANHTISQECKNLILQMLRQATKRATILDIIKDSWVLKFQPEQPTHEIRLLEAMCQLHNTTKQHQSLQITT
The target in assay [20] is SNF-related serine/threonine-protein kinase (Homo sapiens) (UniProt Q9NRH2). Briefly: Inhibition of SNRK(h) at 10.0 µM in the Eurofins Kinase panel. The conditions noted are these: Compound concentration 10.0 uM.
Assay [21] addresses Ribosomal protein S6 kinase beta-1 (Homo sapiens) (UniProt P23443). Briefly: Inhibition of p70S6K(h) at 10.0 µM in the Eurofins Kinase panel. The conditions noted are these: Compound concentration 10.0 uM.
For assay [22], the target named is Serine/threonine-protein kinase 26 (Homo sapiens) (UniProt Q9P289). Briefly: Inhibition of MST4(h) at 10.0 µM in the Eurofins Kinase panel. The conditions noted are these: Compound concentration 10.0 uM.
Assay [23] addresses Sodium- and chloride-dependent GABA transporter 1 (Rattus norvegicus) (UniProt P23978). Description: Inhibition of Transporter, GABA at 10.0 µM in the Eurofins Panlabs Safety Screen. The conditions noted are these: Compound concentration 10.0 uM.
Assay [24] addresses Muscarinic acetylcholine receptor M5 (Homo sapiens, UniProt P08912). Description: GPCRScan assay: inhibition of M5. The arrangement: radioligand conc. used [nm] 0.2 – 1.0, parental cells stable CHO.
Assay [25] deals with Methionine aminopeptidase 2 (Mus musculus, UniProt O08663). Description: METAP2 biochemical assay (mouse).
Assay [26] concerns the target Methionine aminopeptidase 2 (Homo sapiens, UniProt P50579). Briefly: Degradation in HUVEC cells (WB) Dmax (Western Blot (WB)). It counts as functional, cell-based. (Immunoblotting shows a protein as a band on a membrane.)
For assay [27], the target named is Megakaryocyte-associated tyrosine-protein kinase (Homo sapiens) (UniProt P42679). Briefly: Inhibition of MATK(h) at 10.0 µM in the Eurofins Kinase panel. To be noted: Compound concentration 10.0 uM.
The target of assay [28] is Ribosomal protein S6 kinase alpha-5 (Homo sapiens) (UniProt O75582). Description: Inhibition of MSK1(h) at 10.0 µM in the Eurofins Kinase panel. The conditions noted are these: Compound concentration 10.0 uM.
Ribosomal protein S6 kinase alpha-5 (Homo sapiens), sequence (O75582 whole entry, looked up): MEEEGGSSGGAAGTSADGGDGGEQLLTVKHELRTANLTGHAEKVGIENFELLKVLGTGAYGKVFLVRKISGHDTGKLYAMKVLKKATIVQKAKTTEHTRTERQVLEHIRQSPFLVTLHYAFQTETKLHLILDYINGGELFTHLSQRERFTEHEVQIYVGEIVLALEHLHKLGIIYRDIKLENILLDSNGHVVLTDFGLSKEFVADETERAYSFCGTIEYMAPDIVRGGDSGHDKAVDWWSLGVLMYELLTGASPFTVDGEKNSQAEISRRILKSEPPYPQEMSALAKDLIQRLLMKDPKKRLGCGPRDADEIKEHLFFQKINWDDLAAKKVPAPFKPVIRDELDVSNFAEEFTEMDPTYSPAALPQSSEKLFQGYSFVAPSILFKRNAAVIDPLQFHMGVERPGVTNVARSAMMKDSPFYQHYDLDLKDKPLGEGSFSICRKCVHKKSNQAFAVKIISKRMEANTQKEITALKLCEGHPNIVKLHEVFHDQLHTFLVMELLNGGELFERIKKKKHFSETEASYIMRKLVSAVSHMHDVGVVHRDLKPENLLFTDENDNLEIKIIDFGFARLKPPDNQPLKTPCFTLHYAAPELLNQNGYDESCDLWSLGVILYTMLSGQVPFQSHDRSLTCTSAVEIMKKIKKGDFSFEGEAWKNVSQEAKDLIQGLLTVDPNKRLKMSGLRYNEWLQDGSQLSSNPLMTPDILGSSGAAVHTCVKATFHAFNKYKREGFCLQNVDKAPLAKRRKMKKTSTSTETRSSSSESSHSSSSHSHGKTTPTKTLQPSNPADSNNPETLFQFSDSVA
For assay [29], the target named is Serine/threonine-protein kinase Sgk2 (Homo sapiens) (UniProt Q9HBY8). Description: Inhibition of SGK2(h) at 10.0 µM in the Eurofins Kinase panel. To be noted: Compound concentration 10.0 uM.
In assay [30] the target is Calcium/calmodulin-dependent protein kinase type 1G (Homo sapiens) (UniProt Q96NX5). Description: Inhibition of CaMKIgamma(h) at 10.0 µM in the Eurofins Kinase panel. To be noted: Compound concentration 10.0 uM.
In assay [31] the target is Vascular endothelial growth factor receptor 3 (Homo sapiens) (UniProt P35916). Briefly: Inhibition of Flt4(h) at 10.0 µM in the Eurofins Kinase panel. To be noted: Compound concentration 10.0 uM.
Assay [32] addresses Serine/threonine-protein kinase tousled-like 1 (Homo sapiens) (UniProt Q9UKI8). Briefly: Inhibition of TLK1(h) at 10.0 µM in the Eurofins Kinase panel. The conditions noted are these: Compound concentration 10.0 uM.
The target in assay [33] is Activin receptor type-1-like (Homo sapiens) (UniProt P37023). Description: Inhibition of ALK1(h) at 10.0 µM in the Eurofins Kinase panel. The conditions noted are these: Compound concentration 10.0 uM.
Assay [34] deals with Calcium/calmodulin-dependent protein kinase type 1D (Homo sapiens) (UniProt Q8IU85). Description: Inhibition of CaMKIdelta(h) at 10.0 µM in the Eurofins Kinase panel. To be noted: Compound concentration 10.0 uM.
The target of assay [35] is Serine/threonine-protein kinase pim-3 (Homo sapiens) (UniProt Q86V86). Description: Inhibition of Pim-3(h) at 10.0 µM in the Eurofins Kinase panel. The conditions noted are these: Compound concentration 10.0 uM.
The target in assay [36] is 3-hydroxy-3-methylglutaryl-coenzyme A reductase (Homo sapiens) (UniProt P04035). Briefly: Inhibition of HMG-CoA Reductase at 10.0 µM in the Eurofins Panlabs Safety Screen. The conditions noted are these: Compound concentration 10.0 uM.
3-hydroxy-3-methylglutaryl-coenzyme A reductase (Homo sapiens), sequence (P04035 whole entry): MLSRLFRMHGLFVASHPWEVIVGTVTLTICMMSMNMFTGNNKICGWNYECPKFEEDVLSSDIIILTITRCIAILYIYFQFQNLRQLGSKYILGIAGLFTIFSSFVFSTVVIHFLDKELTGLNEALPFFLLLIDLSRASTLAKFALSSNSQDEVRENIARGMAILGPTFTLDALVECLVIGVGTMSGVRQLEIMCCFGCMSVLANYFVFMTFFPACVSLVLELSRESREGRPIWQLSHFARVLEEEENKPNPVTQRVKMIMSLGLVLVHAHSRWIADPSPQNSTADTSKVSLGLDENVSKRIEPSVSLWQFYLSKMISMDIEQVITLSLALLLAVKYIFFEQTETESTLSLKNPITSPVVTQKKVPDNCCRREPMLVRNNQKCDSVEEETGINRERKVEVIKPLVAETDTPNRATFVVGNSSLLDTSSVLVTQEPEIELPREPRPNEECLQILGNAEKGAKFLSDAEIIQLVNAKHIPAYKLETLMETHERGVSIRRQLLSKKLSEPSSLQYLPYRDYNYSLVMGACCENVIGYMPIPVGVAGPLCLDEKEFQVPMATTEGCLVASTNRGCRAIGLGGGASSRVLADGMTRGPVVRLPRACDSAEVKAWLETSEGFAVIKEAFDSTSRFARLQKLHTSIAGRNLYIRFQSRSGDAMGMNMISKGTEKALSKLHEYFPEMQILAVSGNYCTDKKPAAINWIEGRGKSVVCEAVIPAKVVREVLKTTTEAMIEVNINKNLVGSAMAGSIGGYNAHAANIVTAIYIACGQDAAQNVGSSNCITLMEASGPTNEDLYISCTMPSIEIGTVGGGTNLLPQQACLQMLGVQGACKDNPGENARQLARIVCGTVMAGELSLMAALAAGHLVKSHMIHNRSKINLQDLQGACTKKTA
The target in assay [37] is Cannabinoid receptor 1 (Homo sapiens) (UniProt P21554). Briefly: Inhibition of Cannabinoid CB1 at 10.0 µM in the Eurofins Panlabs Safety Screen. To be noted: Compound concentration 10.0 uM.

D(3) dopamine receptor, sequence (P35462 whole entry, the tested form may be a part): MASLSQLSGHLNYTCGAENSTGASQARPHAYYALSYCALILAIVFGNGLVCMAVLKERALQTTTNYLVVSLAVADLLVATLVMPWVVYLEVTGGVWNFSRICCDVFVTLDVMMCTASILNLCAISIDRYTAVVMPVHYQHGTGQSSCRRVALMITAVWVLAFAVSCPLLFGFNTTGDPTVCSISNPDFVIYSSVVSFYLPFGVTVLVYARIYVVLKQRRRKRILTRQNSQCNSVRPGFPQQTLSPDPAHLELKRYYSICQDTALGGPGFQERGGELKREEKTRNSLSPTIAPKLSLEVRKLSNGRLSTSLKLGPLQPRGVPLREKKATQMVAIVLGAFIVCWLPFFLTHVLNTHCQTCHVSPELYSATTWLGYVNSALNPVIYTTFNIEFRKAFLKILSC
Muscarinic acetylcholine receptor M5, sequence (P08912 whole entry): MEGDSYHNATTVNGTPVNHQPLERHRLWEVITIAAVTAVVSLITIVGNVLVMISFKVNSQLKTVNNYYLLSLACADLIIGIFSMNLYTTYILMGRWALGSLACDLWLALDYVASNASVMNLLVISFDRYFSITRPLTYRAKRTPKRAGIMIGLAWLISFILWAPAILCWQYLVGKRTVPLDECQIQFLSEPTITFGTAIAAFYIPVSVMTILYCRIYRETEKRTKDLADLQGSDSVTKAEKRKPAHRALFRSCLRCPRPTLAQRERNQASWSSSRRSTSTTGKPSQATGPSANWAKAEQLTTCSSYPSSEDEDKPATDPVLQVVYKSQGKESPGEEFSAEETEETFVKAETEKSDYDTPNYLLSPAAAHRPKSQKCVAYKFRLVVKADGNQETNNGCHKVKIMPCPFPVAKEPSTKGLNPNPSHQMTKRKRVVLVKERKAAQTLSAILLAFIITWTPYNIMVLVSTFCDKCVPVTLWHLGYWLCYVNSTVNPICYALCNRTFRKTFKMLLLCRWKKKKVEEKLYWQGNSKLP
Serine/threonine-protein kinase Sgk3 (Homo sapiens), sequence (Q96BR1 whole entry): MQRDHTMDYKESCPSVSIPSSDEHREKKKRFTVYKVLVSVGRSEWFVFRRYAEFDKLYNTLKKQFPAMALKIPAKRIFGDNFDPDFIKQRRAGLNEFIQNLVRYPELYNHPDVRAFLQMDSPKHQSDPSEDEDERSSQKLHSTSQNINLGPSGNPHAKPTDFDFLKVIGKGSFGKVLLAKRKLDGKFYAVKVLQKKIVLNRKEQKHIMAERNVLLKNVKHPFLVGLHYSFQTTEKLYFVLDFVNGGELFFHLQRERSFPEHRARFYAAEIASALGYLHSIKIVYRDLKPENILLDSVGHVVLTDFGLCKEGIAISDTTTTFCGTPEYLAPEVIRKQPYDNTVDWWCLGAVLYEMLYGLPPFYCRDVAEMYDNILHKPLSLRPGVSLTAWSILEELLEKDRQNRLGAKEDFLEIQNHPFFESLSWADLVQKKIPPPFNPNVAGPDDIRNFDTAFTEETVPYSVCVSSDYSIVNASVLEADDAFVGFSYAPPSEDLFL
TRAF2 and NCK-interacting protein kinase (Homo sapiens), sequence (Q9UKE5 whole entry, looked up): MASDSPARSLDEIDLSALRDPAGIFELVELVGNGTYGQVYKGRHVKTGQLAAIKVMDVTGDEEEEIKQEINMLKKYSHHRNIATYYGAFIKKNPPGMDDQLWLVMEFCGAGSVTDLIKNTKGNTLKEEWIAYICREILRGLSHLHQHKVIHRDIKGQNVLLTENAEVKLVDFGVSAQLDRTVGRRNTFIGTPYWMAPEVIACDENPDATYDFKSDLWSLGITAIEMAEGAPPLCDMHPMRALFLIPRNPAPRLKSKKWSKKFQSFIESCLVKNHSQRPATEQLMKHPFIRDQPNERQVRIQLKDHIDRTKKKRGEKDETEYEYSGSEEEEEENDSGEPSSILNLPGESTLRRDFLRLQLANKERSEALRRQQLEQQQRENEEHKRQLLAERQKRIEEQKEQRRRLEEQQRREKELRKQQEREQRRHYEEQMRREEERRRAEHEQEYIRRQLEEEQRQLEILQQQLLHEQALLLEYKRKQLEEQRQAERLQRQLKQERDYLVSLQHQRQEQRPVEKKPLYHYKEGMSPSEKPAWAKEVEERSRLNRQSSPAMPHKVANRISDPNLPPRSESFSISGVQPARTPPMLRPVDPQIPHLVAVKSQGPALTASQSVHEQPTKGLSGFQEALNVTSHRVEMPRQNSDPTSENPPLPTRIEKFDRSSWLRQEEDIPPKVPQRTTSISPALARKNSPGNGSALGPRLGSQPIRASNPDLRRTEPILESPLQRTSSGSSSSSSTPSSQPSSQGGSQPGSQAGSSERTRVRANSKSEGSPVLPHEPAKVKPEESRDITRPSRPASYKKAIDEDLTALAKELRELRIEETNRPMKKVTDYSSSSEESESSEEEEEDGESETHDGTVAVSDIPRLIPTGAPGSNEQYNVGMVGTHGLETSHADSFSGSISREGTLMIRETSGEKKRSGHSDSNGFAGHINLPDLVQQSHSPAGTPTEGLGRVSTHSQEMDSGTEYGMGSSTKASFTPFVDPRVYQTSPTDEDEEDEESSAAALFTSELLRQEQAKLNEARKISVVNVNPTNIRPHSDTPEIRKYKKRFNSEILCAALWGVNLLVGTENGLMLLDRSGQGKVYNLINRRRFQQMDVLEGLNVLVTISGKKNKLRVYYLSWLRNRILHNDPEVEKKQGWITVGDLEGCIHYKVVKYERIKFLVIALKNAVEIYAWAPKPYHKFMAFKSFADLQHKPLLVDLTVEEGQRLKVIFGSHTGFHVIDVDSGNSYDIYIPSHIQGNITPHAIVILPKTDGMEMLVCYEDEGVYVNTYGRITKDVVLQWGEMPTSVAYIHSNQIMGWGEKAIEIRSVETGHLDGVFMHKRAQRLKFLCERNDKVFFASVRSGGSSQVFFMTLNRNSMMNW

In general, inhibition refers to the drop in the measured response relative to a control, in per cent. With `O=C1NCCCC1N1Cc2cc(C3CCN(C(=O)CCCCCN4CCC(c5ccc(Oc6nn7cnnc7c7c6CCCC7)cc5)CC4)CC3)ccc2C1=O` (stereo not given), the Ki is 525 nM at D(3) dopamine receptor (read-out: Ki) and 490 nM on D(3) dopamine receptor (read-out: pKi (converted)). In addition, the inhibition is 23.9% in assay [1]; 18.6% in assay [2]; 17.9% in assay [3]; 17.6% in assay [4]; 17.5% in [5]; 16.6% in [6]. For the same compound, the inhibition in assay [7] was 14.4%; in assay [8], 13.4%; in [9] it was 13.3%; in [10], 12.8%; in assay [11] it was 12.5%; in assay [12], 12.1%. The inhibition in assay [13] turned out to be 12%; in assay [14], 11.6%; in assay [15], 11.5%; in assay [16] it was 10.9%; in assay [17], 10.9%; in assay [18], 10.9%. Also, the inhibition was determined as 10.8% in assay [19]; 10.6% in [20]; 10.2% in assay [21]; 10.1% in assay [22]; 8% in assay [23].
The IC50 is the concentration at which inhibition is half-maximal. Take `O=C1CCC(N2Cc3cc(C4CCN(C(=O)CCCCCN5CCC(c6ccc(Oc7nn8cnnc8c8c7CCCC8)cc6)CC5)CC4)ccc3C2=O)C(=O)N1` (stereo not given): the Ki in [24] (read-out: Ki) is 568 nM; in [24] (read-out: pKi (converted)), 562 nM. In addition, in assay [25], the IC50 is 5.9 nM (active). In addition, the DCmax in assay [26] is 94%. Besides, the inhibition in assay [27] is 19.7%; in [28] it was 19.4%; in assay [29] it was 16.5%; in assay [30] it was 15.7%; in assay [31], 12.5%; in [32], 12.3%. Further, the inhibition in assay [33] amounted to 11.5%; in [34] it was 11.4%; in [35], 10.3%; in assay [36], 12%; in [37], 1%.
